What was measured:
[1] = target: MAP/microtubule affinity-regulating kinase 4 (Homo sapiens) (UniProt Q96L34)
[2] = target: Dual specificity protein kinase TTK (Homo sapiens) (UniProt P33981)
[3] = target: Vascular endothelial growth factor receptor 1 (Homo sapiens) (UniProt P17948)
[4] = target: Serine/threonine-protein kinase WNK2 (Homo sapiens) (UniProt Q9Y3S1)
[5] = test system: Phosphatidylinositol 4,5-bisphosphate 3-kinase catalytic subunit alpha isoform (Homo sapiens), P42336 [H1047Y]
[6] = target: Muscarinic acetylcholine receptor M3 (Homo sapiens) (UniProt P20309); details: Compound concentration 10.0 uM
[7] = target: Calcium-dependent protein kinase 1 (Plasmodium falciparum) (UniProt P62344)
[8] = target: Serine/threonine-protein kinase/endoribonuclease IRE1 (Homo sapiens) (UniProt O75460)
[9] = test system: Receptor-type tyrosine-protein kinase FLT3 (Homo sapiens), P36888 [K663Q]
[10] = target: Tyrosine-protein kinase Blk (Homo sapiens) (UniProt P51451)
[11] = target: STE20/SPS1-related proline-alanine-rich protein kinase (Homo sapiens) (UniProt Q9UEW8)
[12] = target: Dual specificity mitogen-activated protein kinase kinase 6 (Homo sapiens) (UniProt P52564)
[13] = target: Ephrin type-B receptor 2 (Homo sapiens) (UniProt P29323)
[14] = test system: Epidermal growth factor receptor (Homo sapiens), P00533 [UNDEFINED MUTATION]
[15] = target: Mitogen-activated protein kinase kinase kinase kinase 2 (Homo sapiens) (UniProt Q12851)
[16] = target: Serine/threonine-protein kinase 38-like (Homo sapiens) (UniProt Q9Y2H1)
[17] = target: Myosin light chain kinase 2, skeletal/cardiac muscle (Homo sapiens) (UniProt Q9H1R3)
[18] = species: Rattus norvegicus; details: Compound concentration 10.0 uM
[19] = target: Serine/threonine-protein kinase PLK4 (Homo sapiens) (UniProt O00444)
[20] = test system: ALK tyrosine kinase receptor (Homo sapiens), Q9UM73 [L1196M]
[21] = target: Tyrosine-protein kinase BTK (Homo sapiens) (UniProt Q06187)
[22] = test system: Tyrosine-protein kinase ABL1 (Homo sapiens), P00519 [E255K]
[23] = target: G protein-coupled receptor kinase 4 (Homo sapiens) (UniProt P32298)
[24] = target: Casein kinase I isoform gamma-3 (Homo sapiens) (UniProt Q9Y6M4)
[25] = target: Megakaryocyte-associated tyrosine-protein kinase (Homo sapiens) (UniProt P42679)
[26] = target: Membrane-associated tyrosine- and threonine-specific cdc2-inhibitory kinase (Homo sapiens) (UniProt Q99640)
[27] = target: 5-hydroxytryptamine receptor 2B (Homo sapiens, UniProt P41595); details: Compound concentration 10.0 uM
[28] = target: Activin receptor type-1 (Homo sapiens) (UniProt Q04771)
[29] = target: Serine/threonine-protein kinase Nek10 (Homo sapiens) (UniProt Q6ZWH5)
[30] = target: 5-hydroxytryptamine receptor 1A (Homo sapiens) (UniProt P08908); details: Compound concentration 10.0 uM
[31] = target: Myotonin-protein kinase (Homo sapiens) (UniProt Q09013)
[32] = target: Receptor-interacting serine/threonine-protein kinase 2 (Homo sapiens) (UniProt O43353)
[33] = target: Mitogen-activated protein kinase kinase kinase 2 (Homo sapiens) (UniProt Q9Y2U5)
[34] = target: Mitogen-activated protein kinase kinase kinase 20 (Homo sapiens) (UniProt Q9NYL2)
[35] = target: Leucine-rich repeat serine/threonine-protein kinase 2 (Homo sapiens) (UniProt Q5S007)
[36] = target: AP2-associated protein kinase 1 (Homo sapiens) (UniProt Q2M2I8)
[37] = target: 5-hydroxytryptamine receptor 7 (Homo sapiens) (UniProt P34969); details: Compound concentration 10.0 uM
[38] = target: Ribosomal protein S6 kinase beta-1 (Homo sapiens) (UniProt P23443)
[39] = target: Cyclin-dependent kinase-like 5 (Homo sapiens) (UniProt O76039)
[40] = target: MAP kinase-activated protein kinase 2 (Homo sapiens) (UniProt P49137)
[41] = target: Tyrosine-protein kinase Lck (Homo sapiens) (UniProt P06239)
[42] = target: Serine/threonine-protein kinase TAO2 (Homo sapiens) (UniProt Q9UL54)
[43] = test system: Epidermal growth factor receptor (Homo sapiens), P00533 [UNDEFINED MUTATION]; remark: listed apart in the source
[44] = target: Tyrosine-protein kinase ZAP-70 (Homo sapiens) (UniProt P43403)
[45] = target: Serine/threonine-protein kinase STK11 (Homo sapiens) (UniProt Q15831)
[46] = Compound concentration 1000.0 nM
[47] = Compound concentration 100.0 nM

Sequence of Epidermal growth factor receptor (Homo sapiens), P00533 [UNDEFINED MUTATION] (P00533 whole entry, looked up, change not shown): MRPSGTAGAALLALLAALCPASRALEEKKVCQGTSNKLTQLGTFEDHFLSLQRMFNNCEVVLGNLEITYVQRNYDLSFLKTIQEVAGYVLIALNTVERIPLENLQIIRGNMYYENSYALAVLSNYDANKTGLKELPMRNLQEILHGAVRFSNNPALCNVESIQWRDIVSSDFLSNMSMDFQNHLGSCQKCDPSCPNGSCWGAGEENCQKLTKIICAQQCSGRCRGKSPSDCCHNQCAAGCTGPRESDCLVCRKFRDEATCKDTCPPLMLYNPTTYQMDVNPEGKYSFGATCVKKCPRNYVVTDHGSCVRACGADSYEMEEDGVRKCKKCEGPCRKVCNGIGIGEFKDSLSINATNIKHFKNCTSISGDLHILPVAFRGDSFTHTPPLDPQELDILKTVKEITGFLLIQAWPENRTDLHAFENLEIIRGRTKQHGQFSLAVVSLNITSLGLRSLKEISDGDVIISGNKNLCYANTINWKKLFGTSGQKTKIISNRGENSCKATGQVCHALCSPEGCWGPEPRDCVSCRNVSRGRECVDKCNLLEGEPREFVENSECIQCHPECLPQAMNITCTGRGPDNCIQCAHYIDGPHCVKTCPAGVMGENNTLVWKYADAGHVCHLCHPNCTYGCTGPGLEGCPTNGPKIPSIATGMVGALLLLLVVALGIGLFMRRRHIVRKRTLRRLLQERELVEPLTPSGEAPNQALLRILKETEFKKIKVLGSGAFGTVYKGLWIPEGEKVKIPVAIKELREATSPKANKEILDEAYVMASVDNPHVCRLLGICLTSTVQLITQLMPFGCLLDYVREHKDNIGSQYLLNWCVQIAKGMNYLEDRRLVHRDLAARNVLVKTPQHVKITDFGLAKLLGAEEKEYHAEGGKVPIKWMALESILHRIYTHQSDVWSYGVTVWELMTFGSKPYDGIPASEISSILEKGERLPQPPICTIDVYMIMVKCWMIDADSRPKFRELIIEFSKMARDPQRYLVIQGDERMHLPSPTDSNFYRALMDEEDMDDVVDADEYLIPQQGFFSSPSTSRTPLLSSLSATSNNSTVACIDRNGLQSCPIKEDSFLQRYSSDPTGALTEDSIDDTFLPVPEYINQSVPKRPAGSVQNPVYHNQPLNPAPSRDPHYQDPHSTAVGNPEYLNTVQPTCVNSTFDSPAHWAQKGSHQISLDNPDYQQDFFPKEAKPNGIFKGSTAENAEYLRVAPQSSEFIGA
Sequence of Casein kinase I isoform gamma-3 (Homo sapiens) (Q9Y6M4 whole entry, looked up, canonical isoform): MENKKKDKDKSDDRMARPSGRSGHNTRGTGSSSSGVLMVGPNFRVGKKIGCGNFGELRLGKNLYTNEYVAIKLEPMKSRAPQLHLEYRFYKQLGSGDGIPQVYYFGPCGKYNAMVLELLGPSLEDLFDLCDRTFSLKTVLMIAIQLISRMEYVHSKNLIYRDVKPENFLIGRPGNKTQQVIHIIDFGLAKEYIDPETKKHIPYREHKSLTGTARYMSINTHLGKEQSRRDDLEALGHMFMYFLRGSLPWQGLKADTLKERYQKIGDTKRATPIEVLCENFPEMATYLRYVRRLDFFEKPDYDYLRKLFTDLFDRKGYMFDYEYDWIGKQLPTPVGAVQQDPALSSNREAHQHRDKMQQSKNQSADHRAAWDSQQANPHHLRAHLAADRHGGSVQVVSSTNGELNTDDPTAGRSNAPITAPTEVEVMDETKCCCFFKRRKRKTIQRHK
Sequence of Ephrin type-B receptor 2 (Homo sapiens) (P29323 whole entry): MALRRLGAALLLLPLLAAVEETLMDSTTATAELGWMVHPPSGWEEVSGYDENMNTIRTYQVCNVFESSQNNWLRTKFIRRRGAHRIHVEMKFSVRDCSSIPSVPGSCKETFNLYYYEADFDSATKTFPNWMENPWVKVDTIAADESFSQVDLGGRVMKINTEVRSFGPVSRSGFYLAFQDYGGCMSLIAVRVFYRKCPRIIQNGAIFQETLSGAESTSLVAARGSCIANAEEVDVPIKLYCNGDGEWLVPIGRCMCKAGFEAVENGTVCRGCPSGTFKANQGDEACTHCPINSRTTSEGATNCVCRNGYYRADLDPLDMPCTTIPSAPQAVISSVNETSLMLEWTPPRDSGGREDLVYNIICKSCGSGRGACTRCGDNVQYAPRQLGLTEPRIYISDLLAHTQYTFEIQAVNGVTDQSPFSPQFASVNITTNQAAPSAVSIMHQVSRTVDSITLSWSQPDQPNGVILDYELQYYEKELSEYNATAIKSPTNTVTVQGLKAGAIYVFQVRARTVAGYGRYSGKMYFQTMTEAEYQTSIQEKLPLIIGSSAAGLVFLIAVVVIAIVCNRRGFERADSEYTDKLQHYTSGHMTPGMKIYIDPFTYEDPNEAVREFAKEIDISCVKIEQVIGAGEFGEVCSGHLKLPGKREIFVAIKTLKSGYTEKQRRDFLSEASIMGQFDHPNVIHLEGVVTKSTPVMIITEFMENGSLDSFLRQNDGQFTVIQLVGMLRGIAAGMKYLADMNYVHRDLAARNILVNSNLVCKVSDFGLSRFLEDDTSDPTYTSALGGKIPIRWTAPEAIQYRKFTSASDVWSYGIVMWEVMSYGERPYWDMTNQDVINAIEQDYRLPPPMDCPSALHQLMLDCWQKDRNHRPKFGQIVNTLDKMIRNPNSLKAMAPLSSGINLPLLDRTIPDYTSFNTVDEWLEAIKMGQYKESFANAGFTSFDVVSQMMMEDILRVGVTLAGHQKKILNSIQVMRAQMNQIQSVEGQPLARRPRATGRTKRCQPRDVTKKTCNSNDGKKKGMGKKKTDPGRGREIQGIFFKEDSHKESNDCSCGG
Sequence of MAP kinase-activated protein kinase 2 (Homo sapiens) (P49137 whole entry, looked up): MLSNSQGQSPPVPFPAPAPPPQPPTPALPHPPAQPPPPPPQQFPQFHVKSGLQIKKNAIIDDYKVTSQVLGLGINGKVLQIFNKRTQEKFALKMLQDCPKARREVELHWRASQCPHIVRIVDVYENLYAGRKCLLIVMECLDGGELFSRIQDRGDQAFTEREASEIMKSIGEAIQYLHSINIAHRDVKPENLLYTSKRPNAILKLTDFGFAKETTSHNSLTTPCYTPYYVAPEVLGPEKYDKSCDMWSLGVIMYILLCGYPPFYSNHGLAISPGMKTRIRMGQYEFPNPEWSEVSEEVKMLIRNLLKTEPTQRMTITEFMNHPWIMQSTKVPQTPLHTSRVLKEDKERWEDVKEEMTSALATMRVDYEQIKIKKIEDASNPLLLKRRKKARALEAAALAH
Sequence of Myosin light chain kinase 2, skeletal/cardiac muscle (Homo sapiens) (Q9H1R3 whole entry): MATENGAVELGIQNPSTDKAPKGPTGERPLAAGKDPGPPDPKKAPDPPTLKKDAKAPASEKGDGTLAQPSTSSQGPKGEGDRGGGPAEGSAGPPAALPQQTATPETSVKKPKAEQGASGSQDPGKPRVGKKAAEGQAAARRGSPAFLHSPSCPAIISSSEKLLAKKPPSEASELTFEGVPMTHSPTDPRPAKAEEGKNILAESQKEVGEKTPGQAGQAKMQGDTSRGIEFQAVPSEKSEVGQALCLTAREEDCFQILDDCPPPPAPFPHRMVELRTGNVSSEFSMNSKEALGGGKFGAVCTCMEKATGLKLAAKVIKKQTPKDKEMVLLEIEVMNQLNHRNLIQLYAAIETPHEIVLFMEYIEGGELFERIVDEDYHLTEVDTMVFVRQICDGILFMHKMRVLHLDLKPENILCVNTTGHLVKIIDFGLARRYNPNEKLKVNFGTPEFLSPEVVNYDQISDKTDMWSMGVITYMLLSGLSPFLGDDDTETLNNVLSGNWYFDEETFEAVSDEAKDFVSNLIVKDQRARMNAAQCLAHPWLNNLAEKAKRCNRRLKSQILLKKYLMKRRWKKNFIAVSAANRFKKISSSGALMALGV
Sequence of 5-hydroxytryptamine receptor 2B (P41595 whole entry): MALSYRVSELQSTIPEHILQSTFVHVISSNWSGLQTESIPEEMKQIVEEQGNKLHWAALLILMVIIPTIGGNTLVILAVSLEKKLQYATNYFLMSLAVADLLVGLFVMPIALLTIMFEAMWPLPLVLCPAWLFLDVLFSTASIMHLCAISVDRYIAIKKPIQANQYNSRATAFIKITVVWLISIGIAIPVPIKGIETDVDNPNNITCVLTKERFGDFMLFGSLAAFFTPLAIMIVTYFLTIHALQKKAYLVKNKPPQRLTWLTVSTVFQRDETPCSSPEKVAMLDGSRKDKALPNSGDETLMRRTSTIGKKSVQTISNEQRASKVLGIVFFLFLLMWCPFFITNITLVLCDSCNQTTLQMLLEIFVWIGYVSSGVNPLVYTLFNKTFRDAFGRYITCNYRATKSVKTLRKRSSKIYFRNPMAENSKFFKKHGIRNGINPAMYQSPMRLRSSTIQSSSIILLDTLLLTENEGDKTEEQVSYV
Sequence of Tyrosine-protein kinase Blk (Homo sapiens) (P51451 2-505 limits assumed): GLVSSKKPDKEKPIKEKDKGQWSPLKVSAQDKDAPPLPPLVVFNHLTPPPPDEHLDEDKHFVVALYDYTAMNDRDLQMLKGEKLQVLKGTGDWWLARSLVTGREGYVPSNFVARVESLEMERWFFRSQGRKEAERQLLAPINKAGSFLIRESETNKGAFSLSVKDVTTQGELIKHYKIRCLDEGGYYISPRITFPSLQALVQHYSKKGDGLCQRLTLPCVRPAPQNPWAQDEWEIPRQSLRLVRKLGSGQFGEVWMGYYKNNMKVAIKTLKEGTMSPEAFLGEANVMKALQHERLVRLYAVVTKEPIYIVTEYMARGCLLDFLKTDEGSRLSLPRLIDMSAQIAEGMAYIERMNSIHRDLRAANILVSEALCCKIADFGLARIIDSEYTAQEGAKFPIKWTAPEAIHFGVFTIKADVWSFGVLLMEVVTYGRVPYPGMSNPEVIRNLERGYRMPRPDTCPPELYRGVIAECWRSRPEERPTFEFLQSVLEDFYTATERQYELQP
Sequence of Dual specificity mitogen-activated protein kinase kinase 6 (Homo sapiens) (P52564 whole entry): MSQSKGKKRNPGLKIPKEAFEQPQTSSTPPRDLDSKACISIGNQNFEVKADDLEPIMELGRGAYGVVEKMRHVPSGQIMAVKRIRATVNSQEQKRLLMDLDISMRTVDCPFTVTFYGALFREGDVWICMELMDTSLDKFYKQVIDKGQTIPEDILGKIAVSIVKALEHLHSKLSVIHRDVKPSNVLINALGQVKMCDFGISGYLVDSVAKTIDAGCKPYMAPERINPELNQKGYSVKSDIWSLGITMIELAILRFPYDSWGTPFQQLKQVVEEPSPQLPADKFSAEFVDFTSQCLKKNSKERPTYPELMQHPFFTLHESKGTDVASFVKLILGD

Which results are given for Cc1cc(NC(=O)c2cccc(S(F)(F)(F)(F)F)c2)cc(-n2ccn3nc(-c4cccnc4)cc23)c1 [BAY-309]?
residual activity [1, 46]: 84.8%; residual activity [2, 46]: 44.8%; residual activity [3, 46]: 100%; residual activity [4, 46]: 100%; residual activity [5, 46]: 22.9%; inhibition [6]: 16.3%; residual activity [7, 46]: 95.1%; residual activity [8, 46]: 99.2%; residual activity [9, 46]: 100%; residual activity [10, 46]: 100%; residual activity [11, 46]: 100%; residual activity [12, 46]: 100%; residual activity [13, 46]: 100%; residual activity [14, 46]: 100%; residual activity [15, 46]: 100%; residual activity [16, 46]: 100%; residual activity [17, 46]: 100%; inhibition [18]: 67.8%; residual activity [19, 46]: 96.9%; residual activity [20, 46]: 100%; residual activity [21, 46]: 83.8%; residual activity [22, 46]: 66.7%; residual activity [23, 46]: 100%; residual activity [24, 46]: 100%; residual activity [25, 46]: 100%; residual activity [26, 46]: 100%; inhibition [27]: 60.4%; residual activity [28, 46]: 100%; residual activity [29, 46]: 37.6%; inhibition [30]: 39.9%; residual activity [31, 46]: 100%; residual activity [32, 46]: 88.6%; residual activity [33, 46]: 52.7%; residual activity [34, 46]: 84.4%; residual activity [35, 46]: 74.6%; residual activity [36, 46]: 100%; inhibition [37]: 6.71%; residual activity [38, 46]: 66.2%; residual activity [39, 46]: 100%; residual activity [40, 46]: 100%; residual activity [41, 46]: 96.6%; residual activity [42, 46]: 91.3%; residual activity [43, 46]: 98.7%; residual activity [44, 46]: 100%; residual activity [45, 46]: 100%

For Cc1cc(C)c(-n2ccn3nc(-c4cccnc4)cc23)cc1NC(=O)c1cc(C#N)cc(S(F)(F)(F)(F)F)c1 [BAY-826], which residual activity [1, 47] is on record?
The residual activity was 92.4%.

And the residual activity [2, 47]?
The residual activity was 72%.

What about the residual activity [3, 47] of the same compound?
Its residual activity is 91.5%.

And the residual activity [4, 47]?
The residual activity was 100%.

And the residual activity [5, 47]?
The residual activity was 76.2%.

And the inhibition [6]?
The inhibition was 10.5%.

What about the residual activity [7, 47] of the same compound?
Its residual activity is 88.9%.

What about the residual activity [8, 47] of the same compound?
Its residual activity is 68.3%.

And the residual activity [9, 47]?
Its residual activity is 100%.

What about the residual activity [10, 47] of the same compound?
Its residual activity is 100%.

And the residual activity [11, 47]?
The residual activity was 64.6%.

And the residual activity [12, 47]?
The residual activity was 100%.

What about the residual activity [13, 47] of the same compound?
Its residual activity is 71.4%.

And the residual activity [14, 47]?
Its residual activity is 72.9%.

And the residual activity [15, 47]?
Its residual activity is 53.1%.

And the residual activity [16, 47]?
The residual activity was 98.9%.

And the residual activity [17, 47]?
Its residual activity is 100%.

What about the inhibition [18] of the same compound?
The inhibition was 59.1%.

And the residual activity [19, 47]?
The residual activity was 64.1%.

And the residual activity [20, 47]?
The residual activity was 99.6%.

What about the residual activity [21, 47] of the same compound?
Its residual activity is 100%.

And the residual activity [22, 47]?
Its residual activity is 74.5%.

What about the residual activity [23, 47] of the same compound?
The residual activity was 100%.

What about the residual activity [24, 47] of the same compound?
The residual activity was 93.7%.

What about the residual activity [25, 47] of the same compound?
Its residual activity is 80.4%.

And the residual activity [26, 47]?
The residual activity was 100%.

And the inhibition [27]?
The inhibition was -7%.

And the residual activity [28, 47]?
Its residual activity is 83.3%.

What about the residual activity [29, 47] of the same compound?
Its residual activity is 100%.

What about the inhibition [30] of the same compound?
The inhibition was -6.68%.

What about the residual activity [31, 47] of the same compound?
Its residual activity is 95.6%.

And the residual activity [32, 47]?
Its residual activity is 84.5%.

And the residual activity [33, 47]?
Its residual activity is 86.4%.

What about the residual activity [34, 47] of the same compound?
The residual activity was 97.5%.

What about the residual activity [35, 47] of the same compound?
The residual activity was 83.5%.

And the residual activity [36, 47]?
The residual activity was 95.9%.

What about the inhibition [37] of the same compound?
Its inhibition is -3.4%.

And the residual activity [38, 47]?
The residual activity was 93%.

And the residual activity [39, 47]?
The residual activity was 100%.

What about the residual activity [40, 47] of the same compound?
Its residual activity is 100%.

And the residual activity [41, 47]?
The residual activity was 41.6%.

And the residual activity [42, 47]?
Its residual activity is 48.2%.

What about the residual activity [43, 47] of the same compound?
Its residual activity is 78.7%.

What about the residual activity [44, 47] of the same compound?
Its residual activity is 79.9%.

And the residual activity [45, 47]?
The residual activity was 75.9%.
